Data reported in patent EP1964555A1, “PHARMACEUTICAL CO[…] INHIBIT THE REUPTAKE OF NORADRENALINE, DOPAMINE AND SEROTONIN, WHICH ARE COMBINED WITH AN AMINO ACID FOR THE TREATMENT OF OBESITY AND OVERWEIGHT” (Espinosa Abdala, Leopoldo de Jesús, priority 2005, dated 2007).

Columns and labels:
[1] = cited from earlier work; for plasma rates: after administration of indicated Sibutramine therapeutic doses; for time for plasma concentrations to reach the stable state: during treatment; for detection in urine: in vivo; for maximum plasma concentration [Tmax]: time after administration; for effect of food on Tmax / effect of food on maximum concentrations: with food
human plasmatic proteins = conditions: plasma; cited from earlier work
[2] = Example 2: randomized, double-blind, crossover study in patients with severe obesity and dyslipidemia; type: in vivo; conditions: 4 weeks per treatment
Description: A randomized, double-blind and crossover study was made in order to assess the reliability and effectiveness of the combination Sibutramine-Carnitine in patients with obesity and/or overweight suffering from dyslipidemia. 80 individuals were included in the study with a BMI higher than 35 kg/m^2 diagnosed with severe obesity, with alteration in the profile of lipids which total cholesterol figures was higher than 200 mg/dl.
Combined Sibutramine-carnitine was administered for 4 weeks and subsequently sibutramine alone and carnitine alone for another 4 weeks.

[3] = single dose, within a 15-day period

SMILES | plasma rates [1] [%] | time for plasma concentrations to reach the stable state [1] | detection in urine [1] | maximum plasma concentration [Tmax] [1] [h] | effect of food on Tmax [1] | effect of food on maximum concentrations [1] | attachment to human plasmatic proteins (human plasmatic proteins) [%] | reduction of BMI ([2]; BMI higher than 35 kg/m^2, total cholesterol higher than 200 mg/dl, combination compared to sibutramine alone) | cholesterol and triglycerides levels ([2]; compared to the admission visit) | share expelled through urine [1, 3] [%] | share of dose expelled through urine and feces [1, 3]
CC(C)CC(N)C1(c2ccc(Cl)cc2)CCC1 (stereo not shown) [M2, di-desmetil-sibutramina] | 12 | four | not detected | ~4 | delay | decreases | 94 | – | – | – | –
C[N+](C)(C)CC(O)CC(=O)[O-] (stereo not shown) [carnitine, Carnitine] | – | – | – | – | – | – | – | no significant differences | – | – | –
CNC(CC(C)C)C1(c2ccc(Cl)cc2)CCC1 (stereo not shown) [M1, mono-desmetilsibutramina] | 6 | four | not detected | ~3 | delay | decreases | 94 | – | – | – | –
CC(C)CC(N(C)C)C1(c2ccc(Cl)cc2)CCC1 (stereo not shown) [Sibutramine] | 3 | – | not detected | 1.2 | – | – | 97 | – | frank progressive reduction | 77 | About 85%
